According to PubChem BioAssay (NCI):
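Five concentrations, 48 hours, 96-well plates. The concentration for full growth arrest is given as TGI.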 Where a SMILES comes first, the peptide text is derived from it. [ ]: non-standard residue; d: D form. The star is where a group is joined. Cbz = O=C(OCc1ccccc1)*; Aib = CC(C)(N)C(=O)O

Experiments:
Assay in all cases: growth of human tumour cells (NCI), 48 h
CAKI-1 renal = system: CAKI-1 renal
MALME-3M melanoma = system: MALME-3M melanoma
MDA-MB-231 breast = system: MDA-MB-231 breast
MOLT-4 leukemia = system: MOLT-4 leukemia
NCI-H522 lung = system: NCI-H522 lung
NCI/ADR-RES ovarian = system: NCI/ADR-RES ovarian
SK-MEL-28 melanoma = system: SK-MEL-28 melanoma
SNB-19 CNS = system: SNB-19 CNS
SW-620 colon = system: SW-620 colon
UO-31 renal = system: UO-31 renal

Row | SMILES | TGI (CAKI-1 renal) [µM] | TGI (MALME-3M melanoma) [µM] | TGI (MDA-MB-231 breast) [µM] | TGI (MOLT-4 leukemia) [µM] | TGI (NCI-H522 lung) [µM] | TGI (NCI/ADR-RES ovarian) [µM] | TGI (SK-MEL-28 melanoma) [µM] | TGI (SNB-19 CNS) [µM] | TGI (SW-620 colon) [µM] | TGI (UO-31 renal) [µM]
1 | CCOC(=O)C1CCCN1C(=O)c1ccccc1Cl (centres undefined) | > 100 | > 100 | > 100 | > 100 | > 100 | > 100 | > 100 | > 100 | > 100 | > 100
2 | CSc1c(C)n([O-])c2cc(Cl)c(Cl)cc2[n+]1=O | 32.5 | 33 | 37.9 | 5.43 | 29.3 | 39.3 | 39 | > 100 | 42.9 | 30.4
3 | Cc1nccn1S(=O)(=O)c1ccc(Cl)cc1 | > 100 | > 100 | 78.9 | > 100 | > 100 | > 100 | > 100 | > 100 | > 100 | > 100
4 | COC(=O)/C=C\C(C#N)(C#N)N=Cc1ccc(Br)cc1 | 5.47 | 12.4 | 8.48 | > 22.4 | 2.95 | 76 | 32.1 | 55.2 | > 22.4 | 15.8
5 | O=C1c2cc3ncsc3cc2C(=O)c2c(O)ccc(O)c21 | > 100 | > 100 | > 100 | > 100 | > 100 | > 100 | > 100 | > 100 | > 100 | > 100
6 | C=C1CC(O)C2C(=C)C(=O)OC2C2C(C)C(=O)CC12 (centres undefined) | 16.6 | 31.5 | 35.4 | 39.2 | 19.9 | 49.7 | 46.5 | 38.5 | 30.7 | 28
7 | CCCCOc1ccc(S(=O)(=O)/N=C(\NO)Nc2ccc(Cl)cc2)cc1 | 23.2 | 32.7 | 33.9 | 31.8 | 30.1 | 33.1 | 36.1 | 30.5 | 40.3 | 24.6
8 | COc1ccc(/C=C(/c2ccc(OC)cc2)c2c(Cl)cc(Cl)c(/C(=C\c3ccc(OC)cc3)c3ccc(OC)cc3)c2N=Nc2ccccc2)cc1 | > 100 | > 100 | > 100 | > 100 | > 100 | > 100 | > 100 | > 100 | > 100 | > 100
9 | Cn1c(-c2c(C3=CC(=O)N(c4ccccc4)C3=O)c3ccccc3n2C)cc2ccccc21 | > 100 | > 100 | > 100 | > 100 | > 100 | > 100 | > 100 | > 100 | > 100 | > 100
10 | Clc1ncnc2c1nc(C#Cc1ccccc1)n2C1CCCCO1 (centres undefined) | 3.91 | 3.91 | 12.7 | 8.32 | 3.65 | 7.01 | 4.78 | 6.22 | 4.94 | 3.38
11 | CC1CN=C(c2ccc(CN3CCC(CCCC4CCN(Cc5ccc(C6=NCC(C)N6)cc5)CC4)CC3)cc2)N1 (centres undefined) | > 100 | > 100 | 59.7 | 50.1 | 70.3 | > 100 | > 100 | 71.5 | > 100 | > 100
12 | Cc1cc(OCc2nnc3n2N=C(c2cc(F)c(Cl)cc2Cl)/C(=C/c2ccc(-c4ccc(Cl)cc4)o2)S3)ccc1Cl | > 50 | > 50 | > 50 | > 50 | > 50 | > 50 | > 50 | > 50 | > 50 | > 50
13 | Cc1ccc2c(c1)Nc1ccccc1P2(=O)O | > 100 | > 100 | > 100 | > 100 | > 100 | > 100 | > 100 | > 100 | > 100 | > 100
14 | CCOC(=O)CCC(NC(=O)c1ccc(Nc2nc3ccccc3nc2C(=O)OCC)s1)C(=O)OCC (centres undefined) | > 100 | > 100 | > 100 | > 100 | > 100 | > 100 | > 100 | > 100 | > 100 | > 100
15 | CC(C)(C)OC(=O)NNCC(O)COc1ccccc1 (centres undefined) | > 100 | > 100 | > 100 | > 100 | > 100 | > 100 | > 100 | > 100 | > 100 | > 100
16 | O=C(O)c1cccc(S(=O)(=O)NN2C(=O)CSC2c2c(O)ccc3ccccc23)c1 (centres undefined) | 68 | 90.6 | > 100 | 46.3 | 77.6 | 76.9 | 79.2 | 87 | 65.7 | > 100
17 | Fc1ccc2c(c1)nc1n2C(c2c(F)cccc2F)SC1 (centres undefined) | > 100 | > 100 | > 100 | 69 | > 100 | > 100 | > 100 | > 100 | > 100 | > 100
18 | COc1ccc(/N=N/C(=NNC(=O)c2ccc(C)cc2)c2ccc(N(C)C)cc2)cc1 | > 100 | 94.6 | > 100 | > 72.5 | 97.9 | > 100 | > 100 | > 100 | > 100 | > 100
19 | CCN(CCC#N)C(=O)Nc1ccccc1 | > 100 | > 100 | > 100 | > 100 | > 100 | > 100 | > 100 | > 100 | > 100 | > 100
20 | Nc1ccn(CC(O)c2cc3ccccc3[nH]2)c(=O)n1 (centres undefined) | > 100 | > 100 | > 100 | > 100 | > 100 | > 100 | > 100 | > 100 | > 100 | > 100
21 | O=C1C=CC(=O)c2c(O)c(N(CCCl)CCCl)c(Cl)c(O)c21 | 6.51 | 5.79 | 6.75 | > 10 | 6.01 | > 10 | > 6.98 | > 10 | 6.56 | > 7.1
22 | O=C(O)C1CSC2(CCCN(Cc3ccccc3)C2)N1 (centres undefined) | > 100 | > 100 | > 100 | > 59.9 | > 100 | > 100 | > 100 | > 100 | > 100 | > 100
23 | CN1C/C(=C\c2cccs2)C(=O)/C(=C/c2cccs2)C1 | > 100 | > 100 | 48.3 | 47.2 | > 100 | 94.5 | > 100 | > 100 | > 100 | 45
24 | CCN(CC)CCNc1ccc([N+](=O)[O-])c2nc3ccc(OC)cc3c(N)c12 | 3.85 | 3.61 | 3.25 | 1.61 | 0.551 | 3.53 | 3.37 | 3.29 | 0.772 | 3.13
25 | Nc1ccc(C(=O)O)cc1 | > 100 | > 100 | > 100 | > 100 | > 100 | > 100 | > 100 | > 100 | > 100 | > 100
26 | CCOC(=O)C1=C(C)N(Cc2ccccc2)C2(O)C(OC)CC(=O)C3C(=O)N(c4ccccc4)C(=O)C132 (centres undefined) | 64.8 | 36.7 | 77.2 | 81.6 | 26.3 | > 100 | 23.3 | 37.6 | > 100 | 33
27 | CC(C)(NC(=O)C(C)(C)NC(=O)OCc1ccccc1)C(=O)O (Cbz-[Aib]-[Aib]-OH) | > 100 | > 100 | > 100 | > 100 | > 100 | > 100 | > 100 | > 100 | > 100 | > 100
28 | CCCCCCCCCCOc1ccc(N=Nc2nnc(-c3ccc(OCCCCC)cc3)s2)cc1 | > 100 | > 100 | > 100 | > 100 | > 100 | > 100 | > 100 | > 100 | > 100 | –
